Key:
[1] = system: MC3T3-E1 cells; experiment: Cell proliferation assay (EZ-Cytox, water-soluble tetrazolium salt); format: cell-based; conditions: differentiation induced MC3T3-E1 cells; 5 μg/mL compared with 1 and 10 μg/ml
Protocol: (§1) C3H10T1/2 cells which are mouse mesenchymal stem cells and MC3T3-E1 cells which are pre-osteoblasts were cultured in Basal Medium Eagle (BME) medium supplemented with 10% fetal bovine serum, 1 mM sodium pyruvate, 100 units/L penicillin and 100 mg/L streptomycin and α-minimal essential medium (α-MEM) at 37° C. under 5% CO2.
(§2) In the case of MC3T3-E1 cells, ascorbic acid (50 μg/ml) and β-Glycerophosphate (10 mM), which are the osteoblast differentiation-inducing agents, were added, and then differentiation was induced for 3 days before treatment with the D3G fraction layer.
(§3) The D3G fraction layer obtained in Examples 1 and 2 was dissolved in sterilized distilled water and divided into three groups of concentrations of 1 μg/ml, 5 μg/ml and 10 μg/ml, and then added them to C3H10T1/2 cells and MC3T3-E1 cells respectively and further cultured for 48 hours. Cells cultured in the absence of the D3G fraction layer were used as a control.
Cell proliferation assays were performed using a EZ-Cytox Enhanced Cell Viability Assay Kit product with water-soluble tetrazolium salt. […]
(§4) Statistical analysis was performed by student's t-test for the control group without extract treatment and for each treatment group with extract treatment, and expressed as *p<0.05 depending on significance level.

[2] = system: C3H10T1/2 cells; experiment: Analysis of ALP activity; format: cell-based, mouse
Protocol: as §1, §3
(§5) After culturing the D3G-treated experimental group treated with the three kinds of concentrations (1 μg/ml, 5 μg/ml, 10 μg/ml) and the control group for 48 hours, ALP activity of cells was measured. ALP activity was measured using a ALP Assay Kit.
Specifically, after washing the cells with the physiological saline, the cell lysed with cytolytic agent was treated with p-nitrophenyl phosphate which is a substrate of ALP and then cultured at 37° C. for 1 hour. Thereafter, 0.5N NaOH which is a reaction stop solution was added, and then the absorbance was measured at a wavelength of 405 nm. […]

[3] = system: MC3T3-E1 cells; experiment: Expression level of osteoblast differentiation gene markers (real-time PCR); format: cell-based; conditions: differentiation-induced MC3T3-E1 cells; 5 μg/ml; relative to Gapdh
Protocol: as §2
The change in the expression levels of mRNAs of osteoblast differentiation gene markers, Alp, Runx2, and Bglap (Osteocalcine) among bone remodeling-related gene markers was confirmed by a quantitative reverse transcription-PCR.
After harvesting the cells, total RNA was isolated using Trizol, and in order to remove genomic DNA, DNase I was reacted at room temperature for 15 minutes and then treated with EDTA to inactivate DNase I.
Thereafter, the reverse transcription reaction was induced by using oligo dT primer as a primer to synthesize cDNA, and then real-time PCR was performed using sequence specific primers of each gene and SYBR Green. The analysis of the expression level was performed by using the relative quantification method for the target gene using the Gapdh gene as a control. The gene-specific primer sequence information for identifying the level of expression of the gene markers used to determine the degree of differentiation of osteoblasts and osteoclasts is shown in Table 1 below.
Expression levels of the three gene markers, Alp, Runx2, and Bglap related to bone remodeling for the D3G in differentiation-induced MC3T3-E1 cells were compared by the method as described above, and the results are shown in FIGS. 7a, 7b, and 7c. Statistical analysis was performed by student's t-test and expressed as *p<0.05 depending on significance level.

[4] = system: MC3T3-E1 cells; experiment: Analysis of ALP activity; format: cell-based
Protocol: as §1
In the case of MC3T3-E1 cells, ascorbic acid (50 μg/ml) and β-Glycerophosphate (10 mM), which are the osteoblast differentiation-inducing agents, were added, and then differentiation was induced for 3 days before treatment with the D3G fraction layer. […]
as §5
Specifically, after washing the cells with the physiological saline, the cell lysed with cytolytic agent was treated with p-nitrophenyl phosphate which is a substrate of ALP and then cultured at 37° C. for 1 hour. Thereafter, 0.5N NaOH which is a reaction stop solution was added, and then the absorbance was measured at a wavelength of 405 nm.
The effect of the cell ALP activity of the Lycium root bark extract in C3H10T1/2 cells and differentiation induced MC3T3-E1 cells was analyzed by the method as described above, and the results are shown in FIG. 4. […]

[5] = system: MC3T3-E1 cells; experiment: Analysis of mineralization action (alizarin red S staining); format: cell-based; conditions: 5 μg/mL, 3 weeks, vs control
Protocol: as §2
The analysis of mineralization action of the cells was performed after incubation of the experimental group treated with 5 μg/ml of the D3G and the control group for 3 weeks. The analysis of mineralization action was performed using the Alizarlin red S staining method.

[6] = system: monocytes isolated from mouse bone marrow; experiment: Osteoclast differentiation (TRAP activity and TRAP staining); format: cell-based; conditions: mouse monocytes with M-CSF and RANKL; 5 μg/ml; treated vs untreated
Protocol: Osteoclasts was isolated from primary monocytes, which are the […] of osteoclasts from the bone marrow of a 6 week old mouse, and cultured them. After confirming that the osteoclasts isolated from mouse stem cells were monocytes isolated from the bone marrow of the mouse through FACS (FIG. 6a) (monocyte positive marker antibody: CD11b), an experiment was performed. Separated mouse monocytes were treated with 30 ng/ml M-CSF and 50 ng/ml LANKL, which are osteoclast differentiation-inducing agents, and differentiation was induced for 3 days before treatment with D3G fraction layer.
Osteoclasts are derived from stem cells and are responsible for bone resorption that destroys aged bone wherein bone remodeling is maintained through the balanced action of osteogenesis by osteoblasts and bone resorption by osteoclasts. To the monocytes extracted and cultured from the stem cells of the femoral region of the mouse, 30 ng/mL M-CSF and 50 ng/mL RANKL were added together and then cultured for 5 days. Thereafter, the activity of TRAP which is an osteoclast differentiation marker was measured.
After washing the cells with physiological saline, TRAP activity was measured by absorbance at a wavelength of 405 nm using an Acid-Phosphatase Kit, and after staining, the osteoclasts were observed through a microscope.

[7] = system: mixed culture of MC3T3-E1 pre-osteoblasts and mouse monocytes; experiment: Mixed culture of osteoblast and osteoclast (ALP and TRAP activity); format: cell-based; conditions: MC3T3-E1 plus monocytes mixed culture; 5 μg/mL
Protocol: In order to assess the maintenance of bone remodeling under the condition closer to the in vivo condition through the balanced action between osteogenesis and bone resorption by osteoblasts and osteoclasts, MC3T3-E1(2×10^4 cells/well), which are pre-osteoblasts, and monocytes (4×10^4 cells/well) obtained by extracting stem cells from the femoral region of the mouse and culturing them were mixed and cultured.
To the mixed culture of osteoblasts and osteoclasts, ascorbic acid (50 μg/ml) and β-glycerophosphate (10 mM) which are osteoblast differentiation-inducing agents were added to induce differentiation for 3 days and then treated with D3G fraction layer. After adding the D3G fraction layer (5 μg/mL) to the mixed culture solution, the activity of ALP which is an osteoblast differentiation marker and the activity of TRAP which is an osteoclast differentiation marker were measured. Statistical analysis was performed by student's t-test and expressed as *p<0.05 and **p<0.01 depending on significance level.

[8] = system: C3H10T1/2 cells; experiment: Cell proliferation assay (EZ-Cytox, water-soluble tetrazolium salt); format: cell-based, mouse; conditions: 5 μg/mL compared with 1 and 10 μg/ml
Protocol: as §1, §3
Cell proliferation assays were performed using a EZ-Cytox Enhanced Cell Viability Assay Kit product with water-soluble tetrazolium salt.
Specifically, C3H10T1/2 cells and MC3T3-E1 cells (3×10^3 cells/well) were inoculated into 96-well plates and cultured in growth medium at 37° C. for 24 hours in 5% CO2, and then the Lycium root bark extracts of three concentrations (1 μg/ml, 5 μg/ml and 10 μg/ml) were added to the cells and cultured for 2 days. […]
as §4

CC(=C/C(=O)O)/C=C/[C@]1(O)[C@]2(C)CO[C@@]1(C)C[C@@H](OC1OC(CO)C(O)C(O)C1O)C2 (stereo partly drawn) [D3G, dihydrophaseic acid 3′-O-β-D-glucopyranoside]
cell proliferation promoting effect at the optimal concentration [1]: highest | enhancing effect of cell ALP activity at 5 μg/mL ([2]; 5 μg/mL compared with 1 and 10 μg/ml): best effect | ALP activity ([2]; 1, 5 and 10 μg/ml, 48 hours, vs control): increase ALP activity | expression level of Alp mRNA [3]: increased | expression level of Bglap (Osteocalcin) mRNA [3]: increased | expression level of Runx2 mRNA [3]: increased | enhancing effect of cell ALP activity at 5 μg/mL ([4]; MC3T3-E1 cells, 5 μg/mL compared with 1 and 10 μg/ml): best effect | ALP activity ([4]; differentiation induced MC3T3-E1 cells, 1, 5 and 10 μg/ml, 48 hours, vs control): increase ALP activity | mineralization (alizarin red S staining) [5]: increase mineralization | TRAP activity (osteoclast differentiation marker) [6]: no significant change | TRAP staining of differentiated osteoclast [6]: no significant change | ALP activity in mixed culture [7]: increase | TRAP activity in mixed culture [7]: increase | cell proliferation promoting effect at the optimal concentration [8]: highest

Reference: patent US11207338B2, “Composition for preventing and treating osteoporosis, comprising dihydrophaseic acid 3′-O-β-D-glucopyranoside isolated from lycium root bark extracts” (DONG WOO DANG CO., LTD, priority 2015, dated 2021)
